Molecular target: recombinant human NK3 receptor (Homo sapiens (Human), UniProt P29371)
Assay: biochemical
Format: binding
Conditions: not given

Sequence of recombinant human NK3 receptor (P29371 whole entry): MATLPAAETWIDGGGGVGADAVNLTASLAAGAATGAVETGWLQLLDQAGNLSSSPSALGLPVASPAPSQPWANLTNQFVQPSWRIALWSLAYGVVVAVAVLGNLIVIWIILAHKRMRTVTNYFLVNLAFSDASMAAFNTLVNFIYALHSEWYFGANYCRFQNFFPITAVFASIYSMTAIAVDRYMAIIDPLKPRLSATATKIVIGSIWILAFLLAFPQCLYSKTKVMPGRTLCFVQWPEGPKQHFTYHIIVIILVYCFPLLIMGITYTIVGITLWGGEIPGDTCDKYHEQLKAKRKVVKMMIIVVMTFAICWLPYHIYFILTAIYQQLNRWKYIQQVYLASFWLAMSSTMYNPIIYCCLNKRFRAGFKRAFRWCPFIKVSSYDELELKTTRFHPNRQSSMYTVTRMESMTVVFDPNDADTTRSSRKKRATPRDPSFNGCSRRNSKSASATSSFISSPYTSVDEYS

SMILES | Ki [nM]
CCN(C(=O)Oc1ccc(F)cc1)[C@@H]1CN(C(=O)C2CCN(C(=O)C3(C)CC3)CC2)C[C@H]1c1ccc(Cl)c(Cl)c1 (racemic) [Example 1, rac-{(3S,4R)-4-(3,4-Dichloro-phenyl)-1-[1-(1-methyl-cyclopropanecarbonyl)-piperidine-4-carbonyl]-pyrrolidin-3-yl}-ethyl-carbamic acid 4-fluoro-phenyl ester] | 1

Same assay, conditions: [3H]SR142801, membranes of HEK293 cells transiently expressing recombinant human NK3 receptor; read-out: Data Ki (hNK-3 receptor affinity)

SMILES | Ki [nM]
CCN(C(=O)Oc1ccc(F)cc1)[C@@H]1CN(C(=O)C2CCN(c3ccc(C(C)(C)O)cn3)CC2)C[C@H]1c1ccc(Cl)c(F)c1 [Example 83, {(3S,4R)-4-(4-Chloro-3-fluoro-phenyl)-1-[5′-(1-hydroxy-1-methyl-ethyl)-3,4,5,6-tetrahydro-2H-[1,2′]bipyridinyl-4-carbonyl]-pyrrolidin-3-yl}-ethyl-carbamic acid 4-fluoro-phenyl ester] | 3.8
CCN(C(=O)Oc1ccc(F)cc1)[C@@H]1CN(C(=O)C2CCN(c3ccc(C#N)cn3)CC2)C[C@H]1c1ccc(Cl)cc1 [Example 21, [(3S,4R)-4-(4-Chloro-phenyl)-1-(5′-cyano-3,4,5,6-tetrahydro-2H-[1,2′]bipyridinyl-4-carbonyl)-pyrrolidin-3-yl]-ethyl-carbamic acid 4-fluoro-phenyl ester] | 2
CCN(C(=O)Oc1ccc(F)cc1)[C@@H]1CN(C(=O)C2CCN(c3ccc(C(F)(F)F)cn3)CC2)C[C@H]1c1ccc(Cl)c(F)c1 [Example 42, [(3S,4R)-4-(4-Chloro-3-fluoro-phenyl)-1-(5′-trifluoromethyl-3,4,5,6-tetrahydro-2H-[1,2′]bipyridinyl-4-carbonyl)-pyrrolidin-3-yl]-ethyl-carbamic acid 4-fluoro-phenyl ester] | 2
CCN(C(=O)Oc1ccc(F)cc1)[C@@H]1CN(C(=O)C2CCN(c3ccc(C)cn3)CC2)C[C@H]1c1ccc(Cl)c(F)c1 [Example 47, [(3S,4R)-4-(4-Chloro-3-fluoro-phenyl)-1-(5′-methyl-3,4,5,6-tetrahydro-2H-[1,2′]bipyridinyl-4-carbonyl)-pyrrolidin-3-yl]-ethyl-carbamic acid 4-fluoro-phenyl ester] | 2
CCN(C(=O)Oc1ccc(F)cc1)[C@@H]1CN(C(=O)C2CCN(c3ccc(C#N)nc3)CC2)C[C@H]1c1ccc(F)c(F)c1 [Example 51, [(3S,4R)-1-(6′-Cyano-3,4,5,6-tetrahydro-2H-[1,3′]bipyridinyl-4-carbonyl)-4-(3,4-difluoro-phenyl)-pyrrolidin-3-yl]-ethyl-carbamic acid 4-fluoro-phenyl ester] | 2
CC(C)N(C(=O)Oc1ccc(F)cc1)[C@@H]1CN(C(=O)C2CCN(c3ccc(C#N)nn3)CC2)C[C@H]1c1ccc(Cl)cc1 [Example 26, {(3S,4R)-4-(4-Chloro-phenyl)-1-[1-(6-cyano-pyridazin-3-yl)-piperidine-4-carbonyl]-pyrrolidin-3-yl}-isopropyl-carbamic acid 4-fluoro-phenyl ester] | 46
CCN(C(=O)Oc1ccc(F)cc1)[C@@H]1CN(C(=O)C2CCN(C(=O)C3(C)CC3)CC2)C[C@H]1c1ccc(Cl)c(F)c1 [Example 44, {(3S,4R)-4-(4-Chloro-3-fluoro-phenyl)-1-[1-(1-methyl-cyclopropanecarbonyl)-piperidine-4-carbonyl]-pyrrolidin-3-yl}-ethyl-carbamic acid 4-fluoro-phenyl ester] | 2

Same assay, conditions: read-out: Data Ki (hNK-3 receptor affinity)

SMILES | Ki [nM]
CCN(C(=O)Oc1ccc(F)cc1)[C@@H]1CN(C(=O)C2CCN(c3ccc(C(F)(F)F)cn3)CC2)C[C@H]1c1ccc(Cl)cc1 [Example 20, [(3S,4R)-4-(4-Chloro-phenyl)-1-(5′-trifluoromethyl-3,4,5,6-tetrahydro-2H-[1,2′]bipyridinyl-4-carbonyl)-pyrrolidin-3-yl]-ethyl-carbamic acid 4-fluoro-phenyl ester] | 3
CCN(C(=O)Oc1ccc(F)cc1)[C@@H]1CN(C(=O)C2CCN(c3ccc(C(C)=O)cn3)CC2)C[C@H]1c1ccc(F)cc1 [Example 38, [(3S,4R)-1-(5′-Acetyl-3,4,5,6-tetrahydro-2H-[1,2′]bipyridinyl-4-carbonyl)-4-(4-fluoro-phenyl)-pyrrolidin-3-yl]-ethyl-carbamic acid 4-fluoro-phenyl ester] | 7
